IC50 data for 27 compounds are collected here from patent US9586956B2, “Isoquinoline and naphthyridine derivatives” (Genentech, Inc., priority 2012, dated 2017).

Molecules are shown by their SMILES.

One assay deals with T1, purified human MAP4K4 kinase domain (Homo sapiens, UniProt O95819).
T1 construct: purified human MAP4K4 kinase domain
T1 sequence (O95819 25-289 limits assumed): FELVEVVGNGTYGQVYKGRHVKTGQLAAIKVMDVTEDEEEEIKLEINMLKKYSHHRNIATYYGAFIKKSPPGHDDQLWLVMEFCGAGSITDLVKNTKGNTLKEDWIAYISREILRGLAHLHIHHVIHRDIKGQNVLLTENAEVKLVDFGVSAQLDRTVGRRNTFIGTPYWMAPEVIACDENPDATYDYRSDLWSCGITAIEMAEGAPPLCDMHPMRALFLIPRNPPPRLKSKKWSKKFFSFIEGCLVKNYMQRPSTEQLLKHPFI
As to the kind of experiment: MAP4K4 Inhibition Assay Protocol No. 1 (Caliper LabChip, moesin-derived peptide phosphorylation). The assay is classed as biochemical. To be noted: Assay 1; 1 nM enzyme, 10 uM ATP, 45 min. Here is the method:
The kinase activity of purified human MAP4K4 kinase domain was measured by monitoring the phosphorylation of a peptide substrate derived from moesin protein (Leu-Gly-Arg-Asp-Lys-Tyr-Lys-Thr-Leu-Arg-Gln-Ile-Arg-Gln) fluorescently labeled on the N-terminus with 5-carboxyfluorescein using the Caliper LabChip technology (Caliper Life Sciences, Hopkinton, Mass.). To determine inhibition constants (IC50), compounds were serially diluted in DMSO and added to 10 uL kinase reactions containing 1 nM purified MAP4K4 enzyme, 1 uM peptide substrate, 10 uM ATP, 10 mM MgCl2, 1 mM EGTA, 50 mM Hepes pH 7.2, 1 mM DTT, 0.01% Triton X-100, and 2% DMSO. Reactions were incubated at room temperature in Perkin Elmer Proxiplates for 45 minutes and stopped by the addition of 10 uL of an EDTA-containing solution (50 mM Hepes pH 7.2, 40 mM EDTA, 0.02% Triton X-100). The fraction of phosphorylated peptide was determined as a fraction of total peptide substrate using the Caliper Lab Chip 3000 according to the manufacturer's instructions. IC50 values were determined using the four-parameter non-linear fit model.
For the compound `Cc1ncc(NC(=O)c2cnc(N)c3cc(-c4cccc(F)c4)ccc23)cn1` [Example 117, 1-amino-7-(3-fluorophenyl)-N-(2-methylpyrimidin-5-yl)isoquinoline-4-carboxamide], the IC50 stood at 0.07 µM. With `CC(O)CNC(=O)c1cnc(N)c2cc(-c3cccc(F)c3)ccc12` (stereo not drawn) [Example 119, 1-amino-7-(3-fluorophenyl)-N-(2-hydroxypropyl) isoquinoline-4-carboxamide], half-maximal inhibition (IC50) was put at 0.0996 µM. The IC50 values of the last two compounds are within 1.5-fold of each other. Compound `Nc1ncc(C(=O)O)c2ccc(-c3cccc(F)c3)cc12` [Example 123, 1-amino-7-(3-fluorophenyl) isoquinoline-4-carboxylic acid] returned an IC50 of 2.1 µM. Against the preceding compound, the IC50 is about 21-fold higher. In the case of `Nc1ncc(C(=O)NC2CNC2)c2ccc(-c3cccc(F)c3)cc12` [Example 124, 1-amino-N-(azetidin-3-yl)-7-(3-fluorophenyl) isoquinoline-4-carboxamide], the IC50 turned out to be 0.4 µM. The same measure, in the same setting: the result for `CCC(=O)N1CC(NC(=O)c2cnc(N)c3cc(-c4cccc(F)c4)ccc23)C1` [Example 125, 1-amino-7-(3-fluorophenyl)-N-(1-propanoylazetidin-3-yl)isoquinoline-4-carboxamide] reads 0.0503 µM; that for `Nc1ncc(C(=O)NC2CN(C(=O)C3CC3)C2)c2ccc(-c3cccc(F)c3)cc12` [Example 126, 1-amino-N-[1-(cyclo-propanecarbonyl)azetidin-3-yl]-7-(3-fluorophenyl)isoquinoline-4-carboxamide], 0.0357 µM.

Another assay deals with T1, purified human MAP4K4 kinase domain. As to the kind of experiment: MAP4K4 Inhibition Assay Protocol No. 2 (Z'-LYTE FRET). Type of assay: biochemical. As to conditions: Assay 2; 1 nM enzyme, 10 uM ATP, 60 min. The text has this:
The kinase activity of purified human MAP4K4 kinase domain was monitored using Z'-LYTE™ technology from Invitrogen to determine inhibition constants (IC50) of small molecule inhibitors. The Z'-LYTE™ biochemical assay employs a fluorescence-based, coupled-enzyme format and is based on the differential sensitivity of phosphorylated and non-phosphorylated peptides to proteolytic cleavage. In the primary reaction, the kinase transfers the gamma-phosphate of ATP to a single tyrosine, serine or threonine residue in a synthetic FRET-peptide. In the secondary reaction, a site-specific protease recognizes and cleaves non-phosphorylated FRET-peptides. Phosphorylation of FRET-peptides suppresses cleavage by the Development Reagent. Cleavage disrupts FRET between the donor (i.e., coumarin) and acceptor (i.e., fluorescein) fluorophores on the FRET-peptide, whereas uncleaved, phosphorylated FRET-peptides maintain FRET. To determine inhibition constants (IC50), compounds were serially diluted in DMSO and added to 10 uL kinase reactions containing 1 nM purified MAP4K4 enzyme, 2 uM ser/thr7 Z'-LYTE™ substrate, 10 uMATP, 50 mM Hepes (pH 7.5), 10 mM MgCl2, 1 mM EGTA, 0.01% Brij-35, and 2% DMSO. Reactions were incubated at room temperature in Corning Black 384 well plates (Corning#3573) for 60 minutes and stopped by the addition of 5 uL of Z'-LYTE™ development reagent A and incubated at room temp for 60 minutes. The plate is then analyzed on Perkin Elmer Envision by FRET mode. The high ratio of coumarin/fluorescein represents 0% phosphorylation rate while low ratio of coumarin/fluorescein represents 100% phosphorylation rate. The following equations are used to determine extent of peptide phosphorylation or inhibition: […]
`Cn1cnc(-c2cnc(N)c3cc(-c4cccc(F)c4)ccc23)c1` [Example 10, 7-(3-fluorophenyl)-4-(1-methylimidazol-4-yl)isoquinolin-1-amine]: the IC50 worked out at 0.0287 µM. The compound `Nc1ncc(-c2ncco2)c2ccc(-c3cccc(F)c3)cc12` [Example 11, 7-(3-fluorophenyl)-4-oxazol-2-yl-isoquinolin-1-amine] yielded an IC50 of 0.00873 µM.

`Cn1ncnc1-c1cnc(N)c2cc(-c3cccc(F)c3)ccc12` [Example 12, 7-(3-fluorophenyl)-4-(2-methyl-1,2,4-triazol-3-yl)isoquinolin-1-amine] gave a half-maximal inhibitory concentration (IC50) of 0.218 µM. The compound `Nc1ncc(C(=O)NC2CN(C(=O)N3CCS(=O)(=O)CC3)C2)c2ccc(-c3cccc(F)c3)nc12` [Example 15, 8-amino-N-(1-(1,1-dioxidothiomorpholine-4-carbonyl)azetidin-3-yl)-2-(3-fluorophenyl)-1,7-naphthyridine-5-carboxamide] registered an IC50 of 0.00455 µM. Compared with the last compound, the IC50 is about 48-fold lower. With `CC(O)C(=O)N1CC(NC(=O)c2cnc(N)c3nc(-c4cccc(F)c4)ccc23)C1` (stereo not drawn) [Example 16, 8-amino-2-(3-fluorophenyl)-N-(1-(2-hydroxypropanoyl)azetidin-3-yl)-1,7-naphthyridine-5-carboxamide], it took 0.0045 µM to reach half-maximal inhibition (IC50). This IC50 and that of the compound before are within 1.5-fold of each other. Take `Nc1ncc(C(=O)NC2CN(C(=O)C3COC3)C2)c2ccc(-c3cccc(F)c3)nc12` [Example 17, 8-amino-2-(3-fluorophenyl)-N-(1-(oxetane-3-carbonyl)azetidin-3-yl)-1,7-naphthyridine-5-carboxamide]: the half-inhibitory concentration (IC50) turned out to be 0.0195 µM. In the case of `CS(=O)(=O)N1CC(NC(=O)c2cnc(N)c3nc(-c4cccc(F)c4)ccc23)C1` [Example 18, 8-amino-2-(3-fluorophenyl)-N-(1-(methylsulfonyl)azetidin-3-yl)-1,7-naphthyridine-5-carboxamide], the 50% inhibitory concentration (IC50) came out at 0.0116 µM. With `CN(C)S(=O)(=O)N1CC(NC(=O)c2cnc(N)c3nc(-c4cccc(F)c4)ccc23)C1` [Example 19, 8-amino-N-(1-(N,N-dimethylsulfamoyl)azetidin-3-yl)-2-(3-fluorophenyl)-1,7-naphthyridine-5-carboxamide], it took 0.00385 µM to reach half-maximal inhibition (IC50). On the same count and under the same terms, the result for `Nc1ncc(C(=O)NC2CN(C(=O)CN3CCOCC3)C2)c2ccc(-c3cccc(F)c3)nc12` [Example 20, 8-amino-2-(3-fluorophenyl)-N-(1-(2-morpholinoacetyl)azetidin-3-yl)-1,7-naphthyridine-5-carboxamide] reads 0.0068 µM. Take `Nc1ncc(C(=O)NC2CN(S(N)(=O)=O)C2)c2ccc(-c3cccc(F)c3)nc12` [Example 21, 8-amino-2-(3-fluorophenyl)-N-(1-sulfamoylazetidin-3-yl)-1,7-naphthyridine-5-carboxamide]: the IC50 was determined as 0.0018 µM.

As to `Nc1ncc(C(=O)NC2CN(CC(F)(F)F)C2)c2ccc(-c3cccc(F)c3)nc12` [Example 22, 8-amino-2-(3-fluorophenyl)-N-(1-(2,2,2-trifluoroethyl)azetidin-3-yl)-1,7-naphthyridine-5-carboxamide], half-maximal inhibition (IC50) required 0.0244 µM.

As to `Nc1ncc(C(=O)NC2CN(S(=O)(=O)C(F)(F)F)C2)c2ccc(-c3cccc(F)c3)nc12` [Example 23, 8-amino-2-(3-fluorophenyl)-N-(1-((trifluoromethyl)sulfonyl)azetidin-3-yl)-1,7-naphthyridine-5-Carboxamide], the IC50 worked out at 0.0285 µM.

`C[C@@H](O)C(=O)N1CC(NC(=O)c2cnc(N)c3nc(-c4cccc(F)c4)ccc23)C1` [Example 24, (R)-8-amino-2-(3-fluorophenyl)-N-(1-(2-hydroxypropanoyl)azetidin-3-yl)-1,7-naphthyridine-5-carboxamide] had an IC50 of 0.004 µM.

The compound `C[C@H](O)C(=O)N1CC(NC(=O)c2cnc(N)c3nc(-c4cccc(F)c4)ccc23)C1` [Example 25, (S)-8-amino-2-(3-fluorophenyl)-N-(1-(2-hydroxypropanoyl)azetidin-3-yl)-1,7-naphthyridine-5-carboxamide] registered an IC50 of 0.00918 µM. The same measure, in the same setting: with `CC(=O)N1CC(NC(=O)c2cnc(N)c3nc(-c4cccc(F)c4)ccc23)C1` [Example 26, N-(1-acetylazetidin-3-yl)-8-amino-2-(3-fluorophenyl)-1,7-naphthyridine-5-carboxamide] the figure was 0.00411 µM; with `Nc1ncc(C(=O)NC2CN(C(=O)N3CCOCC3)C2)c2ccc(-c3cccc(F)c3)nc12` [Example 27, 8-amino-2-(3-fluorophenyl)-N-(1-(morpholine-4-carbonyl)azetidin-3-yl)-1,7-naphthyridine-5-carboxamide], 0.0147 µM; with `Nc1ncc(-c2nnco2)c2ccc(-c3cccc(F)c3)nc12` [Example 28, 2-(3-fluorophenyl)-5-(1,3,4-oxadiazol-2-yl)-1,7-naphthyridin-8-amine], 0.002 µM. In the case of `CCC(=O)NC1CN(C(=O)c2cnc(N)c3nc(-c4cccc(F)c4)ccc23)C1` [Example 29, N-(1-(8-amino-2-(3-fluorophenyl)-1,7-naphthyridine-5-carbonyl)azetidin-3-yl)propionamide], the 50% inhibitory concentration (IC50) came out at 0.0608 µM. Take `Nc1ncc(C(=O)N2CC(NC(=O)C3CC3)C2)c2ccc(-c3cccc(F)c3)nc12` [Example 30, N-(1-(8-amino-2-(3-fluorophenyl)-1,7-naphthyridine-5-carbonyl)azetidin-3-yl)cyclopropanecarboxamide]: the half-maximal inhibitory concentration (IC50) came to 0.0139 µM. `Nc1ncc(C(=O)N2CC(N(C(=O)C3CC3)C(=O)C3CC3)C2)c2ccc(-c3cccc(F)c3)nc12` [Example 31, N-(1-(8-amino-2-(3-fluorophenyl)-1,7-naphthyridine-5-carbonyl)azetidin-3-yl)-N-(cyclopropanecarbonyl)cyclopropanecarboxamide] gave an IC50 of 0.284 µM. With `CC(=O)NC1CN(C(=O)c2cnc(N)c3nc(-c4cccc(F)c4)ccc23)C1` [Example 32, N-(1-(8-amino-2-(3-fluorophenyl)-1,7-naphthyridine-5-carbonyl)azetidin-3-yl)acetamide], the IC50 came out at 0.0198 µM.
